Data published in PubChem BioAssay (NCI).
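In this assay, cells in 96-well plates receive the compound at five concentrations for 48 hours. Endpoints are linearly interpolated between the surrounding concentrations. The concentration for 50% growth inhibition is given as GI50. TGI marks complete inhibition of growth.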

Experiments:
Experiment in all cases: NCI tumour cell line growth inhibition, 48 h; in the data active = GI50 below about 0.43 µM; inactive = the rest
[1] = system: 786-0 renal
[2] = system: A498 renal
[3] = system: A549 NSCLC
[4] = system: ACHN renal
[5] = system: BT-549 breast
[6] = system: CAKI-1 renal
[7] = system: CCRF-CEM leukemia
[8] = system: COLO 205 colon
[9] = system: DU-145 prostate
[10] = system: EKVX NSCLC
[11] = system: HCC-2998 colon
[12] = system: HCT-116 colon
[13] = system: HCT-15 colon
[14] = system: HL-60(TB) leukemia
[15] = system: HOP-62 NSCLC
[16] = system: HOP-92 NSCLC
[17] = system: HS 578T breast
[18] = system: HT29 colon
[19] = system: IGROV1 ovarian
[20] = system: K-562 leukemia
[21] = system: KM12 colon
[22] = system: LOX IMVI melanoma
[23] = system: M14 melanoma
[24] = system: MCF7 breast
[25] = system: MDA-MB-231 breast
[26] = system: MOLT-4 leukemia
[27] = system: NCI-H226 lung
[28] = system: NCI-H23 lung
[29] = system: NCI-H460 lung
[30] = system: NCI-H522 lung
[31] = system: NCI/ADR-RES ovarian
[32] = system: OVCAR-3 ovarian
[33] = system: OVCAR-4 ovarian
[34] = system: OVCAR-5 ovarian
[35] = system: OVCAR-8 ovarian
[36] = system: PC-3 prostate
[37] = system: RPMI-8226 leukemia
[38] = system: SF-268 CNS
[39] = system: SF-295 CNS
[40] = system: SF-539 CNS
[41] = system: SK-MEL-2 melanoma
[42] = system: SK-MEL-28 melanoma
[43] = system: SK-MEL-5 melanoma
[44] = system: SK-OV-3 ovarian
[45] = system: SN12C renal
[46] = system: SNB-19 CNS
[47] = system: SNB-75 CNS
[48] = system: SR leukemia
[49] = system: SW-620 colon
[50] = system: TK-10 renal
[51] = system: U251 CNS
[52] = system: UACC-257 melanoma
[53] = system: UACC-62 melanoma
[54] = system: UO-31 renal
[55] = system: MALME-3M melanoma
[56] = system: MDA-MB-435
[57] = system: RXF 393 renal

COc1cc(C2=NN(C(C)=O)C(c3cc(OC)c(OC)c(OC)c3)C2)ccc1O (centres undefined)
> 73600 nM: TGI [12]
1050 nM: TGI [8]
active: GI50 [2] 260 nM | GI50 [6] 317 nM | GI50 [7] 342 nM | GI50 [8] 274 nM | GI50 [9] 383 nM | GI50 [12] 385 nM | GI50 [13] 392 nM | GI50 [14] 182 nM | GI50 [17] 275 nM | GI50 [18] 358 nM | GI50 [20] 261 nM | GI50 [21] 320 nM | GI50 [23] 342 nM | GI50 [24] 276 nM | GI50 [26] 381 nM | GI50 [29] 346 nM | GI50 [30] 273 nM | GI50 [31] 283 nM | GI50 [32] 289 nM | GI50 [36] 304 nM | GI50 [37] 311 nM | GI50 [39] 216 nM | GI50 [40] 271 nM | GI50 [43] 132 nM | GI50 [44] 307 nM | GI50 [47] 260 nM | GI50 [48] 98.5 nM | GI50 [49] 296 nM | GI50 [51] 420 nM
2190 nM: TGI [43]
514 nM: TGI [14]
inactive: GI50 [1] 458 nM | GI50 [3] 579 nM | GI50 [4] 614 nM | GI50 [5] 1090 nM | GI50 [10] 1130 nM | GI50 [11] 539 nM | GI50 [15] 571 nM | GI50 [16] 67000 nM | GI50 [19] 584 nM | GI50 [22] 618 nM | GI50 [25] 1790 nM | GI50 [27] 23600 nM | GI50 [28] 510 nM | GI50 [33] 532 nM | GI50 [34] 6740 nM | GI50 [35] 619 nM | GI50 [38] 539 nM | GI50 [42] 478 nM | GI50 [45] 882 nM | GI50 [46] 491 nM | GI50 [50] 723 nM | GI50 [52] > 93600 nM | GI50 [53] 471 nM | GI50 [54] 809 nM
5210 nM: TGI [32]
> 21500 nM: TGI [6]
1540 nM: TGI [40]
> 100000 nM: TGI [1] | TGI [3] | TGI [4] | TGI [5] | TGI [10] | TGI [11] | TGI [13] | TGI [15] | TGI [16] | TGI [18] | TGI [19] | TGI [20] | TGI [21] | TGI [22] | TGI [23] | TGI [24] | TGI [25] | TGI [26] | TGI [27] | TGI [28] | TGI [31] | TGI [33] | TGI [34] | TGI [35] | TGI [36] | TGI [38] | TGI [39] | TGI [41] | TGI [42] | TGI [44] | TGI [45] | TGI [46] | TGI [47] | TGI [49] | TGI [50] | TGI [51] | TGI [52] | TGI [53] | TGI [54]
> 40800 nM: TGI [29]
> 35400 nM: TGI [30]
> 33900 nM: TGI [9]
7520 nM: TGI [2]
4030 nM: TGI [37]

COc1cc([C@@H]2c3cc4c(cc3[C@H](OC(C)=O)[C@H]3COC(=O)[C@@H]23)OCO4)cc(OC)c1OC
2630 nM: TGI [12]
active: GI50 [1] 379 nM | GI50 [2] 175 nM | GI50 [5] 419 nM | GI50 [7] 338 nM | GI50 [8] 272 nM | GI50 [9] 245 nM | GI50 [11] 285 nM | GI50 [12] 290 nM | GI50 [13] 371 nM | GI50 [14] 235 nM | GI50 [15] 400 nM | GI50 [17] 253 nM | GI50 [18] 343 nM | GI50 [19] 401 nM | GI50 [20] 253 nM | GI50 [21] 298 nM | GI50 [23] 242 nM | GI50 [24] 334 nM | GI50 [25] 388 nM | GI50 [56] 78.7 nM | GI50 [28] 333 nM | GI50 [29] 322 nM | GI50 [30] 150 nM | GI50 [31] 336 nM | GI50 [32] 317 nM | GI50 [36] 318 nM | GI50 [57] 235 nM | GI50 [38] 358 nM | GI50 [39] 296 nM | GI50 [40] 216 nM | GI50 [41] 342 nM | GI50 [43] 298 nM | GI50 [44] 334 nM | GI50 [46] 393 nM | GI50 [48] 153 nM | GI50 [49] 360 nM | GI50 [51] 377 nM | GI50 [53] 405 nM
583 nM: TGI [2]
3440 nM: TGI [25]
5300 nM: TGI [23]
591 nM: TGI [57]
> 100000 nM: TGI [1] | TGI [3] | TGI [4] | TGI [6] | TGI [7] | TGI [10] | TGI [13] | TGI [15] | TGI [16] | TGI [20] | TGI [22] | TGI [55] | TGI [24] | TGI [26] | TGI [33] | TGI [34] | TGI [35] | TGI [36] | TGI [37] | TGI [39] | TGI [42] | TGI [44] | TGI [45] | TGI [46] | TGI [47] | TGI [48] | TGI [49] | TGI [50] | TGI [51] | TGI [52] | TGI [53] | TGI [54]
682 nM: TGI [17]
1240 nM: TGI [43]
526 nM: TGI [40]
> 68500 nM: TGI [5]
649 nM: TGI [9]
> 62500 nM: TGI [19]
469 nM: TGI [56]
678 nM: TGI [8]
448 nM: TGI [30]
inactive: GI50 [3] 463 nM | GI50 [4] 766 nM | GI50 [6] 537 nM | GI50 [10] 489 nM | GI50 [16] 2550 nM | GI50 [22] 551 nM | GI50 [26] 438 nM | GI50 [27] 3820 nM | GI50 [33] 2110 nM | GI50 [34] 523 nM | GI50 [35] 469 nM | GI50 [37] 445 nM | GI50 [42] 729 nM | GI50 [45] 759 nM | GI50 [54] 493 nM
3300 nM: TGI [29]
